Assay results reported in patent publication US20260262643A1, “HERBICIDAL BENZOXAZINES” (FMC CORPORATION, priority 2022, published 2026).

Columns and labels:
corn [1] = assay: Test C postemergence; format: in vivo, Zea mays; conditions: 10 days
Summary of the method: (§1)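 Seeds sown in loam soil–sand blend received a directed preemergence soil spray of test chemical in non-phytotoxic solvent with surfactant; postemergence plants (2–10 cm, one- to two-leaf stage) were sprayed with the same formulation. Greenhouse-held 10 days, then visually rated for injury versus untreated controls, 0 (no effect) to 100 (complete control).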

kochia [2] = assay: Test C preemergence; format: in vivo, Bassia scoparia; conditions: for Kochia plant response rating: preemergence, 0 to 100 scale (0 no effect, 100 complete control)
Summary of the method: as §1

ducksalad = assay: Test D flooded paddy test; format: in vivo, Heteranthera limosa; conditions: 250 g ai/ha, applied to paddy water, visual rating after 13 to 14 days, scale 0 to 100 (0 no effect, 100 complete control)
Summary of the method: (§2)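 Plants at the 2-leaf stage were grown in pots flooded to 3 cm, and compound was applied directly into the paddy water, with depth kept throughout. After 13–14 days in a greenhouse, injury was rated visually against untreated controls on a 0–100 scale (100 = complete control); a dash means not tested.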

ragweed [3] = assay: Test C preemergence; format: in vivo, Ambrosia artemisiifolia; conditions: for Ragweed plant response rating: preemergence, 0 to 100 scale (0 no effect, 100 complete control)
Summary of the method: as §1

pigweed, palmer [4] = assay: Test C preemergence; format: in vivo, Amaranthus palmeri; conditions: for Pigweed, Palmer plant response rating: preemergence, 0 to 100 scale (0 no effect, 100 complete control)
Summary of the method: as §1

green foxtail [5] = assay: Test C postemergence; format: in vivo, Setaria viridis; conditions: 10 days
Summary of the method: as §1

blackgrass [6] = assay: Test C preemergence; format: in vivo, Alopecurus myosuroides; conditions: for Blackgrass plant response rating: preemergence, 0 to 100 scale (0 no effect, 100 complete control)
Summary of the method: as §1

kochia [7] = assay: Test C postemergence; format: in vivo, Bassia scoparia; conditions: 10 days
Summary of the method: as §1

sedge, umbrella = assay: Test D flooded paddy test; format: in vivo, Cyperus difformis; conditions: 250 g ai/ha, applied to paddy water, visual rating after 13 to 14 days, scale 0 to 100 (0 no effect, 100 complete control)
Summary of the method: as §2

ragweed [8] = assay: Test C postemergence; format: in vivo, Ambrosia artemisiifolia; conditions: 10 days
Summary of the method: as §1

wheat [9] = assay: Test C postemergence; format: in vivo, Triticum aestivum; conditions: 10 days
Summary of the method: as §1

horseweed = assay: Test C postemergence; format: in vivo, Erigeron canadensis; conditions: 10 days
Summary of the method: as §1

ryegrass, Italian [10] = assay: Test C preemergence; format: in vivo, Lolium multiflorum; conditions: for Ryegrass, Italian plant response rating: preemergence, 0 to 100 scale (0 no effect, 100 complete control)
Summary of the method: as §1

barnyardgrass [11] = assay: Test C postemergence; format: in vivo, Echinochloa crusgalli; conditions: 10 days
Summary of the method: as §1

soybean [12] = assay: Test C preemergence; format: in vivo, Glycine max; conditions: for Soybean plant response rating: preemergence, 0 to 100 scale (0 no effect, 100 complete control)
Summary of the method: as §1

rice = assay: Test D flooded paddy test; format: in vivo, Oryza sativa; conditions: 250 g ai/ha, applied to paddy water, visual rating after 13 to 14 days, scale 0 to 100 (0 no effect, 100 complete control)
Summary of the method: as §2

barnyardgrass [13] = assay: Test C preemergence; format: in vivo, Echinochloa crusgalli; conditions: for Barnyardgrass plant response rating: preemergence, 0 to 100 scale (0 no effect, 100 complete control)
Summary of the method: as §1

pigweed, palmer [14] = assay: Test C postemergence; format: in vivo, Amaranthus palmeri; conditions: 10 days
Summary of the method: as §1

wheat [15] = assay: Test C preemergence; format: in vivo, Triticum aestivum; conditions: for Wheat plant response rating: preemergence, 0 to 100 scale (0 no effect, 100 complete control)
Summary of the method: as §1

ryegrass, Italian [16] = assay: Test C postemergence; format: in vivo, Lolium multiflorum; conditions: 10 days
Summary of the method: as §1

blackgrass [17] = assay: Test C postemergence; format: in vivo, Alopecurus myosuroides; conditions: 10 days
Summary of the method: as §1

green foxtail [18] = assay: Test C preemergence; format: in vivo, Setaria viridis; conditions: for Foxtail, Green plant response rating: preemergence, 0 to 100 scale (0 no effect, 100 complete control)
Summary of the method: as §1

oat, wild = assay: Test C postemergence; format: in vivo, Avena fatua; conditions: 10 days
Summary of the method: as §1

corn [19] = assay: Test C preemergence; format: in vivo, Zea mays; conditions: for Corn plant response rating: preemergence, 0 to 100 scale (0 no effect, 100 complete control)
Summary of the method: as §1

barnyardgrass [20] = assay: Test D flooded paddy test; format: in vivo, Echinochloa crus-galli; conditions: 250 g ai/ha, applied to paddy water, visual rating after 13 to 14 days, scale 0 to 100 (0 no effect, 100 complete control)
Summary of the method: as §2

soybean [21] = assay: Test C postemergence; format: in vivo, Glycine max; conditions: 10 days
Summary of the method: as §1

galium = assay: Test C postemergence; format: in vivo, Galium aparine; conditions: 10 days
Summary of the method: as §1

[22] = 500 g ai/ha, postemergence, 0 to 100 scale (0 no effect, 100 complete control)
[23] = Postemergence, 125 g ai/ha, 0 to 100 scale (0 no effect, 100 complete control)
[24] = Preemergence, 125 g ai/ha, 0 to 100 scale, 0 no effect, 100 complete control
[25] = 125 g ai/ha, postemergence, 0 to 100 scale, 0 no effect, 100 complete control

SMILES: Cc1ccc(-n2cnc(C(C)O)n2)cc1C(=O)N1CC(C)Oc2c(Cl)cccc21 (mixture of isomers) [Compound 358]
- Plant response rating, Corn (corn [1]; [22]): 90
- Plant response rating, Corn (corn [1]; [23]): 90
- Kochia plant response rating (kochia [2]; 500 g ai/ha): 100
- Plant response rating, Kochia (kochia [2]; [24]): 20
- Plant response rating, Ducksalad (Flood) (ducksalad): 95
- Ragweed plant response rating (ragweed [3]; 500 g ai/ha): 90
- Plant response rating, Ragweed (ragweed [3]; [24]): 70
- Pigweed, Palmer plant response rating (pigweed, palmer [4]; 500 g ai/ha): 100
- Plant response rating, Pigweed, Palmer (pigweed, palmer [4]; [24]): 100
- Plant response rating, Foxtail, Green (green foxtail [5]; [22]): 90
- Plant response rating, Foxtail, Green (green foxtail [5]; [23]): 90
- Blackgrass plant response rating (blackgrass [6]; 500 g ai/ha): 90
- Plant response rating, Blackgrass (blackgrass [6]; [24]): 80
- Plant response rating, Kochia (kochia [7]; [22]): 70
- Plant response rating, Kochia (kochia [7]; [23]): 40
- Plant response rating, Sedge, Umbrella (Flood) (sedge, umbrella): 90
- Plant response rating, Ragweed (ragweed [8]; [22]): 80
- Plant response rating, Ragweed (ragweed [8]; [23]): 50
- Plant response rating, Wheat (wheat [9]; [22]): 80
- Plant response rating, Wheat (wheat [9]; [23]): 50
- Plant response rating, Horseweed (horseweed; [22]): 90
- Plant response rating, Horseweed (horseweed; [23]): 70
- Ryegrass, Italian plant response rating (ryegrass, Italian [10]; 500 g ai/ha): 100
- Plant response rating, Ryegrass, Italian (ryegrass, Italian [10]; [24]): 90
- Plant response rating, Barnyardgrass (barnyardgrass [11]; [22]): 100
- Plant response rating, Barnyardgrass (barnyardgrass [11]; [23]): 90
- Soybean plant response rating (soybean [12]; 500 g ai/ha): 100
- Plant response rating, Soybean (soybean [12]; [24]): 100
- Plant response rating, Rice (Flood) (rice): 15
- Barnyardgrass plant response rating (barnyardgrass [13]; 500 g ai/ha): 100
- Plant response rating, Barnyardgrass (barnyardgrass [13]; [24]): 100
- Plant response rating, Pigweed, Palmer (pigweed, palmer [14]; [22]): 80
- Plant response rating, Pigweed, Palmer (pigweed, palmer [14]; [23]): 50
- Wheat plant response rating (wheat [15]; 500 g ai/ha): 90
- Plant response rating, Wheat (wheat [15]; [24]): 50
- Plant response rating, Ryegrass, Italian (ryegrass, Italian [16]; [22]): 100
- Plant response rating, Ryegrass, Italian (ryegrass, Italian [16]; [23]): 90
- Plant response rating, Blackgrass (blackgrass [17]; [22]): 100
- Plant response rating, Blackgrass (blackgrass [17]; [23]): 90
- Foxtail, Green plant response rating (green foxtail [18]; 500 g ai/ha): 100
- Plant response rating, Foxtail, Green (green foxtail [18]; [24]): 100
- Plant response rating, Oat, Wild (oat, wild; [22]): 80
- Plant response rating, Oat, Wild (oat, wild; [23]): 30
- Corn plant response rating (corn [19]; 500 g ai/ha): 70
- Plant response rating, Corn (corn [19]; [24]): 50
- Plant response rating, Barnyardgrass (Flood) (barnyardgrass [20]): 30
- Plant response rating, Soybean (soybean [21]; [22]): 100
- Plant response rating, Soybean (soybean [21]; [23]): 100
- Plant response rating, Galium (galium; [22]): 100
- Plant response rating, Galium (galium; [23]): 100

SMILES: CCOCc1ncn(-c2ccc(C)c(C(=O)N3C[C@H](C)Oc4c(Cl)cccc43)c2)n1 [Compound 294]
- Plant response rating, Corn (corn [1]; [25]): 30
- Plant response rating, Corn (corn [1]; [22]): 90
- Kochia plant response rating (kochia [2]; 500 g ai/ha): 80
- Kochia plant response rating (kochia [2]; Test C, 125 g ai/ha): 20
- Plant response rating, Ducksalad (Flood) (ducksalad): 0
- Ragweed plant response rating (ragweed [3]; 500 g ai/ha): 0
- Ragweed plant response rating (ragweed [3]; Test C, 125 g ai/ha): 0
- Pigweed, Palmer plant response rating (pigweed, palmer [4]; 500 g ai/ha): 90
- Pigweed, Palmer plant response rating (pigweed, palmer [4]; Test C, 125 g ai/ha): 60
- Plant response rating, Foxtail, Green (green foxtail [5]; [25]): 10
- Plant response rating, Foxtail, Green (green foxtail [5]; [22]): 70
- Blackgrass plant response rating (blackgrass [6]; 500 g ai/ha): 90
- Blackgrass plant response rating (blackgrass [6]; Test C, 125 g ai/ha): 70
- Plant response rating, Kochia (kochia [7]; [25]): 60
- Plant response rating, Kochia (kochia [7]; [22]): 60
- Plant response rating, Sedge, Umbrella (Flood) (sedge, umbrella): 0
- Plant response rating, Ragweed (ragweed [8]; [25]): 50
- Plant response rating, Ragweed (ragweed [8]; [22]): 70
- Plant response rating, Wheat (wheat [9]; [25]): 10
- Plant response rating, Wheat (wheat [9]; [22]): 40
- Plant response rating, Horseweed (horseweed; [25]): 30
- Plant response rating, Horseweed (horseweed; [22]): 70
- Ryegrass, Italian plant response rating (ryegrass, Italian [10]; 500 g ai/ha): 100
- Ryegrass, Italian plant response rating (ryegrass, Italian [10]; Test C, 125 g ai/ha): 90
- Plant response rating, Barnyardgrass (barnyardgrass [11]; [25]): 10
- Plant response rating, Barnyardgrass (barnyardgrass [11]; [22]): 50
- Soybean plant response rating (soybean [12]; 500 g ai/ha): 90
- Soybean plant response rating (soybean [12]; Test C, 125 g ai/ha): 20
- Plant response rating, Rice (Flood) (rice): 0
- Barnyardgrass plant response rating (barnyardgrass [13]; 500 g ai/ha): 100
- Barnyardgrass plant response rating (barnyardgrass [13]; Test C, 125 g ai/ha): 40
- Plant response rating, Pigweed, Palmer (pigweed, palmer [14]; [25]): 40
- Plant response rating, Pigweed, Palmer (pigweed, palmer [14]; [22]): 60
- Wheat plant response rating (wheat [15]; 500 g ai/ha): 20
- Wheat plant response rating (wheat [15]; Test C, 125 g ai/ha): 0
- Plant response rating, Ryegrass, Italian (ryegrass, Italian [16]; [25]): 40
- Plant response rating, Ryegrass, Italian (ryegrass, Italian [16]; [22]): 90
- Plant response rating, Blackgrass (blackgrass [17]; [25]): 30
- Plant response rating, Blackgrass (blackgrass [17]; [22]): 80
- Foxtail, Green plant response rating (green foxtail [18]; 500 g ai/ha): 100
- Foxtail, Green plant response rating (green foxtail [18]; Test C, 125 g ai/ha): 90
- Plant response rating, Oat, Wild (oat, wild; [25]): 10
- Plant response rating, Oat, Wild (oat, wild; [22]): 10
- Corn plant response rating (corn [19]; 500 g ai/ha): 50
- Corn plant response rating (corn [19]; Test C, 125 g ai/ha): 50
- Plant response rating, Barnyardgrass (Flood) (barnyardgrass [20]): 0
- Plant response rating, Soybean (soybean [21]; [25]): 90
- Plant response rating, Soybean (soybean [21]; [22]): 100
- Plant response rating, Galium (galium; [25]): 100
- Plant response rating, Galium (galium; [22]): 90
